From patent US8440708B2, “Triazole-substituted arylamides as P2X3 and P2X2/3 antagonists” (Roche Palo Alto LLC, priority 2007, dated 2013)

Experiments:
[1] = biological target: T1, human P2X2/3 receptor (Homo sapiens, UniProt P56373+Q9UBL9); experiment: P2X3/P2X2/3 FLIPR (Fluorometric Imaging Plate Reader) Assay, P2X2/3; format: cell-based; settings: CHO-K1 cells transfected with human P2X2/3; agonist α,β-meATP 5 μM; Table 1; read-out: P2X2/3 pKi (converted)
T1 construct: expressed in transfected cells; host or cells: CHO-K1
T1 sequence (Q9UBL9 1-471): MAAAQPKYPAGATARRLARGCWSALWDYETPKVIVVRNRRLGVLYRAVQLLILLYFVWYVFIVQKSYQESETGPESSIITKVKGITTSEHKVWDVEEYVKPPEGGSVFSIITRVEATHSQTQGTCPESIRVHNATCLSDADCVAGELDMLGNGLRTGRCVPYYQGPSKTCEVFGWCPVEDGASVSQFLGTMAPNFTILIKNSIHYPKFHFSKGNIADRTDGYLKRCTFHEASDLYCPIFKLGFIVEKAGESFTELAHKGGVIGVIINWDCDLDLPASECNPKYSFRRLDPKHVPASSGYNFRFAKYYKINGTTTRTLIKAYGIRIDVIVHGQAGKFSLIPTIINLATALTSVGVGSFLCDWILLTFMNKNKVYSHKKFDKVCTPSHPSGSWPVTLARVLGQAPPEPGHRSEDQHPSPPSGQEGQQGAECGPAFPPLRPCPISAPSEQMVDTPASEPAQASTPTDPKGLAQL
T1 sequence (P56373 1-397): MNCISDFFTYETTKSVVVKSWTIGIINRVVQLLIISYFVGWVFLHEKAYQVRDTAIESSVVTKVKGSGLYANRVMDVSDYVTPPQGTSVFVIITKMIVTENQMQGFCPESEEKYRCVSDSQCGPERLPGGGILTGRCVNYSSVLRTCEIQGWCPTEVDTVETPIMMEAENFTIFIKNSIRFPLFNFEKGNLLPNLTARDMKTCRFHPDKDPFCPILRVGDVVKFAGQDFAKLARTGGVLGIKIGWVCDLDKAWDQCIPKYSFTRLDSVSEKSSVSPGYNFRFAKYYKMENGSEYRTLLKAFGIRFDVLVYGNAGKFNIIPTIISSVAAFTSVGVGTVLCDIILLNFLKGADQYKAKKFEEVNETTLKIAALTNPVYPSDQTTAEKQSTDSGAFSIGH
Method in brief: (§1)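 Transfected CHO-K1 cells loaded with Fluo-3 AM (2 μM final) for 1 h at 37 °C, then compound preincubated 20 min at room temperature. α,β-meATP challenge at 1 μM (P2X3) or 5 μM (P2X2/3) final; peak calcium fluorescence (ex 488, em 510-570 nm) over 2 min fitted by nonlinear regression to inhibition curves.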

[2] = biological target: T2, rat P2X3 receptor (Rattus norvegicus, UniProt P49654); experiment: P2X3/P2X2/3 FLIPR (Fluorometric Imaging Plate Reader) Assay, P2X3; format: cell-based; settings: CHO-K1 cells transfected with rat P2X3; agonist α,β-meATP 1 μM; Table 1; read-out: P2X3 pKi (converted)
T2 construct: expressed in transfected cells; host or cells: CHO-K1
T2 sequence (P49654 1-397): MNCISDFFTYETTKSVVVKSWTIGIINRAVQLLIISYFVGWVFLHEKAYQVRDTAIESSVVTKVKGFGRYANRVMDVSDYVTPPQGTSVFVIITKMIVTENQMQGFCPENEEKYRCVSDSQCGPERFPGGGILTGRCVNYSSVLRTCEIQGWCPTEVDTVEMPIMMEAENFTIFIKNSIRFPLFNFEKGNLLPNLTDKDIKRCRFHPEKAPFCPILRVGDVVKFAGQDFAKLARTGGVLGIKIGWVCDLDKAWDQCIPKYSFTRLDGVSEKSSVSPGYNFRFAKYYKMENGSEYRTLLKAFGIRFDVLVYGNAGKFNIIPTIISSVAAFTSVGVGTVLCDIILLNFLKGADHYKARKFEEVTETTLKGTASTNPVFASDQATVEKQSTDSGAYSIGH
Method in brief: as §1

Ki [1] [nM] | Ki [2] [nM] | SMILES
151 | 24 | Cc1ccc(-c2cc(-n3ncnc3C(F)(F)F)cc(C(=O)NCc3ncc(C)cn3)c2F)nc1 [Compound 177, 2-Fluoro-3-(5-methyl-pyridin-2-yl)-N-(5-methyl-pyrimidin-2-ylmethyl)-5-(5-trifluoromethyl-[1,2,4]triazol-1-yl)-benzamide]
51.3 | 3.63 | Cc1ccc(-c2cc(-n3ncnc3C(F)(F)F)cc(C(=O)NCc3cnc(C)nc3)c2F)nc1 [Compound 178, 2-Fluoro-3-(5-methyl-pyridin-2-yl)-N-(2-methyl-pyrimidin-5-ylmethyl)-5-(5-trifluoromethyl-[1,2,4]triazol-1-yl)-benzamide]
339 | 24.5 | Cc1ccc(-c2cc(C(=O)N[C@H](C)CN3CCOCC3)cc(-n3ncnc3C(F)(F)F)c2)nc1 [Compound 179, N-((R)-1-Methyl-2-morpholin-4-yl-ethyl)-3-(5-methyl-pyridin-2-yl)-5-(5-trifluoromethyl-[1,2,4]triazol-1-yl)-benzamide]
46.8 | 6.61 | Cc1ccc(-c2cc(C(=O)N[C@@H](C)c3cnccn3)cc(-n3ncnc3C(F)(F)F)c2)nc1 [Compound 180, 3-(5-Methyl-pyridin-2-yl)-N-((S)-1-pyrazin-2-yl-ethyl)-5-(5-trifluoromethyl-[1,2,4]triazol-1-yl)-benzamide]

Further lines, the compound ahead of its results:

SMILES | Ki [1] [nM] | Ki [2] [nM]
Cc1ccc(-c2cc(C(=O)NCc3cnc(C)cn3)cc(-n3ncnc3C(F)(F)F)c2F)nc1 [Compound 164, 4-Fluoro-N-(5-methyl-pyrazin-2-ylmethyl)-3-(5-methyl-pyridin-2-yl)-5-(5-trifluoromethyl-[1,2,4]triazol-1-yl)-benzamide] | 302 | 11.5
Cc1ccc(-c2cc(-n3ncnc3C(F)(F)F)cc(C(=O)N[C@@H](C)CO)c2F)nc1 [Compound 167, 2-Fluoro-N-((S)-2-hydroxy-1-methyl-ethyl)-3-(5-methyl-pyridin-2-yl)-5-(5-trifluoromethyl-[1,2,4]triazol-1-yl)-benzamide] | 12 | 2.51
Cc1ccc(-c2cc(-n3ncnc3C(F)(F)F)cc(C(=O)NC(C)c3cnccn3)c2F)nc1 (stereo not drawn) [Compound 168, 2-Fluoro-3-(5-methyl-pyridin-2-yl)-N-(1-pyrazin-2-yl-ethyl)-5-(5-trifluoromethyl-[1,2,4]triazol-1-yl)-benzamide] | 2690 | 13.5
Cc1ccc(-c2cc(-n3ncnc3C(F)(F)F)cc(C(=O)NCc3cnc(C)cn3)c2F)nc1 [Compound 169, 2-Fluoro-N-(5-methyl-pyrazin-2-ylmethyl)-3-(5-methyl-pyridin-2-yl)-5-(5-trifluoromethyl-[1,2,4]triazol-1-yl)-benzamide] | 95.5 | 4.27
Cc1ccc(-c2cc(C(=O)NCc3ncc(C)cn3)cc(-n3ncnc3C(F)(F)F)c2)nc1 [Compound 171, 3-(5-Methyl-pyridin-2-yl)-N-(5-methyl-pyrimidin-2-ylmethyl)-5-(5-trifluoromethyl-[1,2,4]triazol-1-yl)-benzamide] | 209 | 16.6
Cc1ccc(-c2cc(-n3ncnc3C(C)C)cc(C(=O)NC(C)c3cnccn3)c2F)nc1 (stereo not drawn) [Compound 173, 2-Fluoro-5-(5-isopropyl-[1,2,4]triazol-1-yl)-3-(5-methyl-pyridin-2-yl)-N-(1-pyrazin-2-yl-ethyl)-benzamide] | 85.1 | 3.98
Cc1ccc(-c2cc(-n3ncnc3C(C)C)cc(C(=O)N[C@@H](C)CO)c2F)nc1 [Compound 174, 2-Fluoro-N-((S)-2-hydroxy-1-methyl-ethyl)-5-(5-isopropyl-[1,2,4]triazol-1-yl)-3-(5-methyl-pyridin-2-yl)-benzamide] | 1620 | 6.46
Cc1ccc(-c2cc(-n3ncnc3C(F)(F)F)cc(C(=O)NCc3ccc(C)nn3)c2F)nc1 [Compound 176, 2-Fluoro-N-(6-methyl-pyridazin-3-ylmethyl)-3-(5-methyl-pyridin-2-yl)-5-(5-trifluoromethyl-[1,2,4]triazol-1-yl)-benzamide] | 32.4 | 3.72
